Reference: the NIST ThermoML archive (doi:10.1016/j.jct.2009.05.004)

Assay: mn = molality of the nth substance listed, in mol/kg
Settings: Liquid, Vibrating tube method

[Br-].[Br-].[Zn+2] [zinc bromide] + CCO
Settings	mass density [kg/m3]
373.14 K, 19874 kPa, m1 = 0.9305	872.91
373.14 K, 24846 kPa, m1 = 1.887	1005.15
373.14 K, 24985 kPa, m1 = 0.05681	753.48
373.14 K, 25624 kPa, m1 = 0.3043	790.48
373.14 K, 34851 kPa, m1 = 0.3043	799.55
373.14 K, 39921 kPa, m1 = 0.05681	767.81
373.15 K, 1032 kPa, m1 = 0.05681	723.97
373.15 K, 1228 kPa, m1 = 0.3043	761.13
373.15 K, 1745 kPa, m1 = 1.49	926.45
373.15 K, 4944 kPa, m1 = 0.4384	785.45
373.15 K, 5301 kPa, m1 = 1.49	931.02
373.15 K, 9796 kPa, m1 = 0.1696	752.88
373.15 K, 10025 kPa, m1 = 0.3043	772.61
373.15 K, 10059 kPa, m1 = 1.49	936.9
373.15 K, 14641 kPa, m1 = 0.1696	758.82
373.15 K, 14690 kPa, m1 = 0.9305	867.04
373.15 K, 14903 kPa, m1 = 0.4384	797.84
373.15 K, 15214 kPa, m1 = 1.49	942.98
373.15 K, 15627 kPa, m1 = 0.05681	742.91
373.15 K, 19954 kPa, m1 = 1.49	948.31
373.15 K, 20147 kPa, m1 = 0.3043	784.56
373.15 K, 24995 kPa, m1 = 0.9305	878.38
373.15 K, 25487 kPa, m1 = 1.49	954.2
373.15 K, 29987 kPa, m1 = 1.49	958.73
373.15 K, 30014 kPa, m1 = 0.05681	758.65
373.15 K, 34798 kPa, m1 = 0.4384	818.78
373.15 K, 35026 kPa, m1 = 1.49	963.54
373.15 K, 35841 kPa, m1 = 0.05681	764.21
373.15 K, 39669 kPa, m1 = 0.1696	784.45
373.15 K, 39689 kPa, m1 = 0.4384	823.15
373.15 K, 39845 kPa, m1 = 0.3043	804
373.15 K, 39954 kPa, m1 = 1.49	967.95
373.16 K, 5415 kPa, m1 = 0.3043	766.72
373.16 K, 10024 kPa, m1 = 0.05681	735.99
373.16 K, 15428 kPa, m1 = 0.3043	779.16
373.16 K, 29954 kPa, m1 = 0.3043	794.87
373.16 K, 34801 kPa, m1 = 0.1696	780.13
373.16 K, 34880 kPa, m1 = 1.887	1014.97
373.16 K, 34946 kPa, m1 = 0.9305	888.07
373.17 K, 1840 kPa, m1 = 0.9305	851.03
373.17 K, 5196 kPa, m1 = 0.9305	855.41
373.17 K, 9909 kPa, m1 = 0.9305	861.33
373.17 K, 19733 kPa, m1 = 0.1696	764.71
373.17 K, 19793 kPa, m1 = 0.4384	803.46
373.17 K, 20061 kPa, m1 = 0.05681	748.07
373.17 K, 29790 kPa, m1 = 0.9305	883.2
373.17 K, 39725 kPa, m1 = 1.887	1019.24
373.17 K, 39848 kPa, m1 = 0.9305	892.38
393.11 K, 5006 kPa, m1 = 0.1696	724.69
393.12 K, 5021 kPa, m1 = 1.887	958.47
393.12 K, 5106 kPa, m1 = 0.9305	833.37
393.12 K, 20028 kPa, m1 = 0.1696	745.51
393.12 K, 20063 kPa, m1 = 0.4384	784.5
393.12 K, 25074 kPa, m1 = 0.4384	790.6
393.12 K, 34785 kPa, m1 = 1.887	995.67
